Measured values from ChEMBL document CHEMBL3351620, “Structure-activity relationships and molecular modeling studies of novel arylpiperazinylalkyl 2-benzoxazolones and 2-benzothiazolones as 5-HT(7) and 5-HT(1A) receptor ligands” (Eur J Med Chem, 2014).

Legend:
[1] = target: T1, 5-hydroxytryptamine receptor 7 (Homo sapiens, UniProt P34969); assay: Displacement of [3H]5-HT from human 5HT7 receptor transfected in […] cells after 30 mins by liquid scintillation spectrometry; assay type: cell-based
[2] = target: T2, 5-hydroxytryptamine receptor 1A (Homo sapiens, UniProt P08908); assay: Displacement of [3H]8-OH-DPAT from human 5-HT1A receptor transfected in […] cells after 30 mins by liquid scintillation spectrometry; assay type: cell-based
T2 sequence (P08908 whole entry): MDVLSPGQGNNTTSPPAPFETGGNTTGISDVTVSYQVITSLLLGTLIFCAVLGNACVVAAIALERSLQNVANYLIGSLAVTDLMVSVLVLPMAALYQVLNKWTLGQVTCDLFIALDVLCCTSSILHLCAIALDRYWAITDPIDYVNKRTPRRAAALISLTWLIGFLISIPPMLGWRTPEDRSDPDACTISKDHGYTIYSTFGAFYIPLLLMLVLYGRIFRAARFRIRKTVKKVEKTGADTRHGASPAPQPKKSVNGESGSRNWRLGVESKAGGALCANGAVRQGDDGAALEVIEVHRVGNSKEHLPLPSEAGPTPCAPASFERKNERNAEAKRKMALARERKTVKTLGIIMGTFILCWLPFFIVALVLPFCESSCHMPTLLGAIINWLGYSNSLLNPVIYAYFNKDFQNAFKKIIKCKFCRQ

Homo sapiens = species on record: Homo sapiens; assay: Selectivity ratio of Ki for human 5HT1A receptor to Ki for human 5HT7 receptor
[3] = target: T1, 5-hydroxytryptamine receptor 7; assay: Displacement of [3H]5-HT from human 5HT7 receptor transfected in […] cells ay 1 uM after 30 mins by liquid scintillation spectrometry; assay type: cell-based

T1 sequence (P34969 whole entry): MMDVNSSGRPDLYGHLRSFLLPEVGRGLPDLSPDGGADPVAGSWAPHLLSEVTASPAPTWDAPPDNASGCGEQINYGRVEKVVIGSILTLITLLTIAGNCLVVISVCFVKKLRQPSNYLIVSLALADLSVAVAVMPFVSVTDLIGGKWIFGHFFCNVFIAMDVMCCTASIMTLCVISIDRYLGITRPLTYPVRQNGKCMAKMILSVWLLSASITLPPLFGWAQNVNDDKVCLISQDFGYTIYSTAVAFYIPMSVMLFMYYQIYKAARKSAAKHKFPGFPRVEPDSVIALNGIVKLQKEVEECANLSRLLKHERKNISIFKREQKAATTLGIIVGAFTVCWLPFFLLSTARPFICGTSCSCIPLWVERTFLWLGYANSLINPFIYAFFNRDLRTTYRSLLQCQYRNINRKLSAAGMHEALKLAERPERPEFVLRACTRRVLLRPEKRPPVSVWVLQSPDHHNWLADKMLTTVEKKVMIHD

| SMILES | Ki [1] [nM] | Ki [2] [nM] | Ratio Ki (Homo sapiens) | inhibition [3] [%] |
| --- | --- | --- | --- | --- |
| O=c1sc2ccccc2n1CCCCN1CCN(c2cccc(Cl)c2)CC1 | 1.72 | 6.13 | 3.56 |  |
| COc1ccccc1N1CCN(CCCCC(=O)NC2CCCc3ccccc32)CC1 (stereo not drawn) | 9 | 6.05 |  |  |
| O=c1oc2ccccc2n1CCCCCCCN1CCN(c2ccccc2)CC1 | 45.6 | 29.8 | 0.65 |  |
| COc1ccccc1N1CCN(CCCCCCCn2c(=O)sc3ccccc32)CC1 | 8.49 | 0.21 | 0.02 |  |
| COc1ccccc1N1CCN(CCCCCCn2c(=O)sc3ccccc32)CC1 | 2.9 | 0.43 | 0.14 |  |
| O=c1oc2ccccc2n1CCCCCCN1CCN(c2ccccc2)CC1 | 14.1 | 3.96 | 0.28 |  |
| COc1ccccc1N1CCN(CCCCn2c(=O)sc3ccccc32)CC1 | 7.77 | 24.6 | 3.16 |  |
| Cc1ccccc1N1CCN(CCCCn2c(=O)sc3ccccc32)CC1 | 0.99 | 10.4 | 10.5 |  |
| O=c1sc2ccccc2n1CCCCN1CCN(c2ccccc2)CC1 | 36.5 | 913 | 25 |  |
| O=c1oc2ccccc2n1CCCCCN1CCN(c2ccccc2)CC1 | 57.4 | 19.2 | 0.33 |  |
| O=c1[nH]c2ccccc2n1CCCCCN1CCN(c2ccc(Cl)cc2)CC1 |  | 454 |  |  |
| COc1ccccc1N1CCN(CCCCn2c(=O)oc3ccccc32)CC1 | 10.3 | 19.2 | 1.85 |  |
| O=c1sc2ccccc2n1CCCCCCCN1CCN(c2ccccc2)CC1 | 7.58 | 0.27 | 0.03 |  |
| O=c1sc2ccccc2n1CCCCN1CCN(c2ccc(Cl)cc2)CC1 | 46.8 | 83.3 | 1.77 |  |
| O=c1sc2ccccc2n1CCCCCN1CCN(c2ccccc2)CC1 | 20 | 95.7 | 4.78 |  |
| O=c1sc2ccccc2n1CCCCN1CCN(Cc2ccccc2)CC1 | 41.9 | 695 | 16.6 |  |
| COc1ccccc1N1CCN(CCCCCCCn2c(=O)oc3ccccc32)CC1 | 7.73 | 0.19 | 0.02 |  |
| COc1ccccc1N1CCN(CCCCCn2c(=O)sc3ccccc32)CC1 | 5.16 | 7.13 | 1.38 |  |
| COc1ccccc1N1CCN(CCCCCn2c(=O)oc3ccccc32)CC1 | 5.9 | 11.9 | 2.01 |  |
| O=C1c2cccc3cccc(c23)N1CCCCCN1CCN(c2ccccc2)CC1 |  |  |  | 92 |
| O=c1oc2ccccc2n1CCCCN1CCN(c2ccccc2)CC1 | 26.3 | 90.3 | 3.43 |  |
| O=c1sc2ccccc2n1CCCCN1CCc2ccccc2C1 | 2.84 | 74.9 | 26.4 |  |
| O=C1Nc2cc(F)ccc2C1CCCCN1CCN(c2cccc(Cl)c2)CC1 (stereo not drawn) | 118 | 6.7 |  |  |
| O=c1sc2ccccc2n1CCCCCCN1CCN(c2ccccc2)CC1 | 2.96 | 0.91 | 0.3 |  |
| O=C1Cc2ccccc2N1CCCCN1CCN(c2cccc3ccccc23)CC1 | 22 | 47 |  |  |
| COc1ccccc1N1CCN(CCCCCCn2c(=O)oc3ccccc32)CC1 | 11.7 | 1.3 | 0.11 |  |
| COc1ccccc1N1CCN(CCCn2c(=O)[nH]c3ccccc32)CC1 | 3.4 | 40 |  |  |
